For series [1], the system named is GBM8 glioblastoma patient-derived cell culture. Nature of the series: In vitro drug screening, cell viability by CellTiter GLO 2.0 after 5 days. It is filed as cell-based. To be noted: Homo sapiens, 120 h, 5 days incubation. On the procedure:
(§1) Glioblastoma stem-like cell cultures (GSC) were derived from primary brain tumor samples received directly from the operating room. Tumor classification was performed by the local neuropathologist according to guidelines of the WHO 2007 and 2016 classification of primary brain tumors. The use of patient tissue for this study was approved by the local ethics committee and all patients signed informed consent forms according to the guidelines of the Institutional Review Board. Samples were processed as described previously. The GBM8 cell line was kindly provided by dr. Hiroaki Wakimoto (Massachusetts General Hospital, Boston, MA, USA). All cell cultures were grown in Dulbecco’s modified Eagle’s medium (DMEM)–F12 with 1% penicillin/streptomycin, B27 (Invitrogen), human epidermal growth factor (EGF; 5 μg/mL), human basic fibroblast growth factor (FGF; 5 μg/mL) (both from Tebu-Bio) and heparin ([…]; Sigma-Aldrich, St. Louis, MI, USA).
(§2) Glioma stem-like cell cultures were cultured under serum free conditions according to Verheul et al.. Cells were seeded in 96-well plates (Greiner bio-one, Kremsmünster, Austria) coated with extracellular matrix (BD Bioscience, Becton Drive Franklin Lakes, NJ, USA) at 1000 cells/well. A stock solution of OMA was diluted in a serum-free cell culture medium to obtain a starting concentration of 8 μM in 0.1% DMSO. Serial dilutions of OMA and DMSO were added to the wells 24 h later for an incubation period of 5 days. Cell viability was measured by the CellTiter GLO 2.0 and dose–response curves and IC50 values were calculated using GraphPad Prism version 9. All experiments were performed in 3 biological replicates.
(§3) GraphPad Prism software version 9.5 (GraphPad Software) was used for calculating IC50 values using nonlinear regression (curve-fit). GraphPad Prism was used to determine whether there was a statistically significant difference in OMA concentration and the B/P ratio between the L and R hemispheres of mice bearing GS832, GS607 and GBM8 tumors, using an unpaired t-test. […]

The test system of series [2] is GS607 glioblastoma patient-derived cell culture. The description is as above. Format: cell-based. To be noted: Homo sapiens, 120 h, 5 days incubation. As for the experimental part: as §1, §2, §3
The subject of series [3] is GS832 glioblastoma patient-derived cell culture. The series is described as above. Format: cell-based. To be noted: Homo sapiens, 120 h, 5 days incubation. On the procedure:
as §1, §2, §3

Series [4] concerns the target T1, murine BCRP (Abcg2) (Mus musculus, UniProt Q7TMS5).
T1 construct: expressed in transfected cells; host or cells: MDCK type II (canine kidney) cells transduced with murine Abcg2 (MDCK-Bcrp1)
T1 sequence (Q7TMS5 1-657): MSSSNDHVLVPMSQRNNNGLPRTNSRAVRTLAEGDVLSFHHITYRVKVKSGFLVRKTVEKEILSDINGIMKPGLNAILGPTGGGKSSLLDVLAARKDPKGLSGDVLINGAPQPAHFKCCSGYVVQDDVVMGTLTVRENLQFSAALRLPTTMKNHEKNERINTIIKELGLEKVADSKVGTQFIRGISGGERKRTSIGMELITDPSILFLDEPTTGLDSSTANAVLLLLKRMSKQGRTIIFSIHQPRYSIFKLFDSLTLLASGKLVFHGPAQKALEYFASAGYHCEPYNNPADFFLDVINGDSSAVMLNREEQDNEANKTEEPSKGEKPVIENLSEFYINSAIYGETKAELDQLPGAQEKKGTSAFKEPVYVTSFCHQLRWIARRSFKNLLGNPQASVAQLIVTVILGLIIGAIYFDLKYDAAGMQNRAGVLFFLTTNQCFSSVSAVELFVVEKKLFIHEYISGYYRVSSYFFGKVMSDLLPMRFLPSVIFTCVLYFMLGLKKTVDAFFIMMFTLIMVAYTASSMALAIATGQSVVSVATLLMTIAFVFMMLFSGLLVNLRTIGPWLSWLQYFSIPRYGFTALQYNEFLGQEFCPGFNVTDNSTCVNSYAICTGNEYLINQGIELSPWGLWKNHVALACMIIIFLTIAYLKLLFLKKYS
The experiment in a line: Concentration equilibrium transport assay (CETA), MDCK cells transduced with murine Abcg2, with zosuquidar. Format: in vitro ADME. To be noted: omacetaxine 100 nM, zosuquidar 1 μM, up to 4 h. As for the experimental part:
(§4) In vitro transport studies were performed using the LLC pig kidney cell line (LLC-PK1) and sub-lines transduced with murine Abcb1a (LLC-Mdr1a) or human ABCB1 (LLC-MDR1). Similarly, in vitro transport studies were conducted in the parental Madin–Darby canine kidney (MDCK) type II cell line (MDCK-Parent) and murine Abcg2 (MDCK-Bcrp1) or human ABCG2 (MDCK-BCRP) transduced sublines. Concentration equilibrium transport assays (CETA) were performed as previously described. Briefly, cells were grown on polycarbonate membrane filters (3.0 µm pores, 24 mm diameter; Costar Corning, NY, USA) for 4 days. Next, 2 mL of MEM medium containing 10% FCS and omacetaxine (100 nM) was added to both the apical and basal compartments. Then, [14C]-inulin ([…]) was added basolateral to check the membrane integrity. Zosuquidar 1 μM was added to all wells containing MDCK cells to inhibit endogenous (canine) ABCB1. […] The integrity of the membrane was checked by taking 20 μL samples from both apical and basolateral sides for radioactivity counting. […] OMA concentrations were measured using an LC-MS/MS system that consisted of an UltiMate 3000 LC System (Dionex, Sunnyvale, CA, USA) and an API 4000 mass spectrometer (Sciex, Framingham, MA, USA).

Series [5] concerns the target T2, human P-gp (ABCB1) (Homo sapiens, UniProt P08183).
T2 construct: expressed in transfected cells; host or cells: LLC-PK1 (pig kidney) cells transduced with human ABCB1 (LLC-MDR1)
The experiment in a line: Concentration equilibrium transport assay (CETA), LLC-PK1 cells transduced with human ABCB1. Format: in vitro ADME. To be noted: omacetaxine 100 nM, up to 4 h. As for the experimental part: as §4

Series [6] deals with T3, murine P-gp (Abcb1a) (Mus musculus, UniProt P21447).
T3 construct: expressed in transfected cells; host or cells: LLC-PK1 (pig kidney) cells transduced with murine Abcb1a (LLC-Mdr1a)
Nature of the series: Concentration equilibrium transport assay (CETA), LLC-PK1 cells transduced with murine Abcb1a. It is filed as in vitro ADME. To be noted: omacetaxine 100 nM, up to 4 h. As for the experimental part: as §4

These results are taken from article PMC11678797, “A Repurposed Drug Selection Pipeline to Identify CNS-Penetrant Drug Candidates for Glioblastoma” (Pharmaceuticals, 2024).

T3 sequence (P21447 whole entry): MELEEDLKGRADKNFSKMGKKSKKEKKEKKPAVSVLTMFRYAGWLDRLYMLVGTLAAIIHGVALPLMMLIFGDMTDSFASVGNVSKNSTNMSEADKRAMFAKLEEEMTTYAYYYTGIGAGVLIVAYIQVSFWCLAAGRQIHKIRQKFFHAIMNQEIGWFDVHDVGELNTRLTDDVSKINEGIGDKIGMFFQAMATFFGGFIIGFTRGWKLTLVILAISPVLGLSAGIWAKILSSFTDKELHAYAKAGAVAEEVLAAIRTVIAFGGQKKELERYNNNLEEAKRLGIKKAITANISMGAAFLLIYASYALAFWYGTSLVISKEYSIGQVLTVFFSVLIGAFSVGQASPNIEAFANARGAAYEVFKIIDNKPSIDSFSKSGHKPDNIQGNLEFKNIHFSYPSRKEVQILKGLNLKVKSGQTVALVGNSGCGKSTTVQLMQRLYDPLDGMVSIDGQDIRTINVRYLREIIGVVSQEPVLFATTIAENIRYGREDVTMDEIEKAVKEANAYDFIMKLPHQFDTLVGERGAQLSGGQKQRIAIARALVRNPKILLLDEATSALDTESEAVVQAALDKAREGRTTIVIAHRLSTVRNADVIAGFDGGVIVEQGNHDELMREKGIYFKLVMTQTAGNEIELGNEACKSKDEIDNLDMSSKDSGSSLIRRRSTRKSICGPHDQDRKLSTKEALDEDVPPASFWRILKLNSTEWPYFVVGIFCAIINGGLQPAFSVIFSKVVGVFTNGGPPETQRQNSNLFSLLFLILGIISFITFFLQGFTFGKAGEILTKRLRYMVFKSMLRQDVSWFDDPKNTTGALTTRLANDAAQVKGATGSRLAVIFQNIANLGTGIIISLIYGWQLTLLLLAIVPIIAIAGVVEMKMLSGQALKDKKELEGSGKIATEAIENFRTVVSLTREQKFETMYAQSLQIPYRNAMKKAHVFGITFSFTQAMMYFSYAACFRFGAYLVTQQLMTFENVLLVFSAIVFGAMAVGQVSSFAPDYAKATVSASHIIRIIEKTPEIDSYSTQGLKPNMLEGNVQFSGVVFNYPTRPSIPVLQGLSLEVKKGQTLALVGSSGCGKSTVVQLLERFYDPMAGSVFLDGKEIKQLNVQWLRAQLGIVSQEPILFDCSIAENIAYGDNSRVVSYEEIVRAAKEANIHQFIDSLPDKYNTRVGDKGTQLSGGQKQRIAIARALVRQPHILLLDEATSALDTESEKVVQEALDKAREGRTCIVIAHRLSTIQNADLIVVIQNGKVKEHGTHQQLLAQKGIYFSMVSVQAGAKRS
T2 sequence (P08183 whole entry): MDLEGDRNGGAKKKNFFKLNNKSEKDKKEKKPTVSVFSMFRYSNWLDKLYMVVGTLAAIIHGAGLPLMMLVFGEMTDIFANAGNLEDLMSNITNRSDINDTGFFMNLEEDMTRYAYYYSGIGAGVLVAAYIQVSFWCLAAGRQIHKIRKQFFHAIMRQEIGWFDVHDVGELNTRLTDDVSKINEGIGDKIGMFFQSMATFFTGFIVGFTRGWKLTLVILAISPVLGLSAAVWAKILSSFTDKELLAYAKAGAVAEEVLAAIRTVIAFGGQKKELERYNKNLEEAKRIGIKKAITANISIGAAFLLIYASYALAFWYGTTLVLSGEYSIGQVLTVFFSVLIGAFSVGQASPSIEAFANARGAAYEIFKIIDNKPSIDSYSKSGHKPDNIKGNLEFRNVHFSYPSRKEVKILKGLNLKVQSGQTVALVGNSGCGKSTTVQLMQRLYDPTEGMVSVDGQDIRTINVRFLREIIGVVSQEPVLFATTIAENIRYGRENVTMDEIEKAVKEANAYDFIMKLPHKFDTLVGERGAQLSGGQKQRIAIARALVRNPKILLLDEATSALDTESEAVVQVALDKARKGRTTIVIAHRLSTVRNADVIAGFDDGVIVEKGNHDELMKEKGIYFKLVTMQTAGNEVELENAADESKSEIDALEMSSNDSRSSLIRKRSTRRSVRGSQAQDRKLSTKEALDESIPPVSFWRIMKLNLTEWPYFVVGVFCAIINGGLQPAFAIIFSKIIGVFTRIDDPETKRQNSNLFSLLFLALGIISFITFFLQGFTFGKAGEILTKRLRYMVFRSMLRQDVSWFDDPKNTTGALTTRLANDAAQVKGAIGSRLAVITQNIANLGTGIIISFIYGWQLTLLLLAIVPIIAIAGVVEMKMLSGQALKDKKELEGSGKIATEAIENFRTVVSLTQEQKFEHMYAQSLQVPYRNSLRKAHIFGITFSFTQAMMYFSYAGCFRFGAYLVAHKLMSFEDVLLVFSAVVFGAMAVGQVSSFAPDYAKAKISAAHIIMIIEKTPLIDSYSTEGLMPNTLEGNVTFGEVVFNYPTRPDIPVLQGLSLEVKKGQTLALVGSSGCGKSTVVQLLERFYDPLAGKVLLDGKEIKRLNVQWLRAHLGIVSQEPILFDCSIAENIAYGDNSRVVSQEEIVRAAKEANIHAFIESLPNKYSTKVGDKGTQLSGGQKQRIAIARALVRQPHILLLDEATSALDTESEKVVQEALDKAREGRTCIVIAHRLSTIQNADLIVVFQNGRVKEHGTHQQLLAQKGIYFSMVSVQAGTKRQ

On to `COC(=O)C[C@](O)(CCCC(C)(C)O)C(=O)O[C@@H]1C(OC)=C[C@]23CCCN2CCc2cc4c(cc2[C@H]13)OCO4` [OMA, Omacetaxine mepesuccinate], for which the IC50 amounted to 7.2 nM in series [1], 22.9 nM in series [2] and 4.9 nM in series [3]. Moreover, the “substrate of BCRP (translocation between apical and basolateral compartments)” value in series [4] was “not a substrate”. The “substrate of P-gp (translocation basolateral to apical)” value in series [5] and in series [6] was “weak substrate” each time.

A word on the IC50: it is the concentration that inhibits the measured activity by half.
